We go through four molecules from article PMC7583056, “Synthesis, Characterisation and In Vitro Anticancer Activity of Catalytically Active Indole-Based Half-Sandwich Complexes” (Molecules, 2020).

A word on the IC50: it is the concentration needed to halve the response being measured.

Like-named read-outs stand apart in the source and are kept apart here.

Data set [1] can be described thus: pKa determination by UV-Vis spectroscopy at increasing pH. The conditions noted are these: 6% acetonitrile/water v/v; for pKa: UV-Vis, aqua adduct, pH 7–12. It is filed as physicochemical. On the procedure: The pKa values for the complexes were measured by dissolving the compounds in 6% acetonitrile/water v/v (aqua adduct formed) and by recording the UV-Vis spectra of the samples at increasing pH (pH 7–12). pKa values of the complexes were calculated using Origin 2018 by plotting the absorbance at the corresponding wavelength against the pH and fitting it to the Boltzmann equation to obtain the inflection point. For complexes 2–4, the pKa values were calculated to be around 10 (Materials and Methods section and Table 1). The pKa of compound 1 could not be calculated, as the absorbance bands for the aqua- and the hydroxo- compounds overlap; however, changes could only be observed at pH values higher than 10. These pKa values are high, although such a decrease in acidity has been previously reported (generally attributed to an increased electron density on the metal centre). As a consequence of such high pKa, only the aqua adduct of the metal complexes is expected to be present at physiological pH (7.4), thus favouring the reaction between the metal complexes with possible ligands such as nucleobases or proteins.
Complexes 1–4 were dissolved in acetonitrile/H2O 6:94 v/v and UV-Vis spectra of the sample were recorded increasing the pH (pH 7–12). pKa vales of the complexes were calculated using Origin 2018 by plotting the absorbance against the pH.

The nature of data set [2]: Transfer hydrogenation: reduction of NAD+ with formate as hydride donor (1H-NMR). The conditions noted are these: for TOF (turnover frequency) for the reduction of NAD+: NAD+ 9 mol. equiv., formate 28 mol. equiv., pH* 7.4 ± 0.2, 310 K, complex 1.1 mM in MeOD/D2O (1:1 v/v). On the procedure: The ability of complexes 1–4 to oxidise NADH was investigated. The ^1H-NMR spectra show an increase of the NAD^+ signals over time (Figure 3). However, the reaction is very slow and after 8 h only around 10% of NADH is converted to NAD^+. […] The possibility of using compounds 1–4 as a transfer hydrogenation catalyst to reduce NAD^+ was investigated (Materials and Methods section). Compounds 1–4 reduced NAD^+ with turnover frequencies (TOF) between 6 and 15 h^−1 (Table 1), which is within the range of previously reported compounds [51, 53, 74, 75, 76]. Remarkably, under the conditions here reported (MeOD/D2O 1:1 v/v, 310 K, pH* 7.4 ± 0.2), the iridium complex 2 reduced nine molar equivalents of NAD^+ within the initial 10 min. However, no TOF could be calculated for this compound, owing to the speed of the reaction.
Transfer hydrogenation reactions with complexes 1–4, formate, and NAD^+ were studied by mixing a solution of the corresponding complex (2.2 mM, MeOD), sodium formate (137 mM, D2O) and NAD^+ (44 mM, D2O). Final concentrations of 1.1 mM for the complex, 10 mM for NAD^+ and 30 mM for NaHCO2 were obtained (molar ratio 1:9:28). The pH of the mixture was adjusted to 7.4 ± 0.2. ^1H-NMR spectra were recorded at 310 K every 5 min until completion of the reaction.
Molar ratios of NAD^+ and NADH were determined by integrating the area under the signals associated with NAD^+ (9.33 ppm) and 1,4-NADH (6.96 ppm). The turnover number (TON) for the reaction was calculated as follows: (1) TONI6.96/I6.96+[…][NAD^+]0/[Catalyst] where In is the integral of the signal at n ppm and [NAD^+]0 is the concentration of NAD^+ at the start of the reaction.

For another data set, the system named is A2780 cells. Briefly: Chemosensitivity assay (MTT) in A2780 cells. The data set is classed as cell-based. The conditions noted are these: for Selectivity towards cancerous cells (A2780) versus normal cells (PNT2): from IC50 values A2780 vs PNT2. An excerpt: The antiproliferative activity of the ind-py ligand and of complexes 1–4 against ovarian cancer A2780 (cisplatin sensitive) and A2780cisR (cisplatin resistant) cell lines was studied. The IC50 values obtained for all the complexes are shown in Table 2, together with values for cisplatin, which was used as a positive control (untreated cells for 100% viability as negative control). […] One of the major limitations of existing anticancer drugs is their poor selectivity towards cancer cells. Comparing the response of the cancer cell lines to the normal PNT2 cells provides a preliminary indication towards the selectivity of the compounds.
In vitro chemosensitivity tests were performed against A2780, A2780cisR and PNT2 cells. Cells were routinely maintained as monolayer cultures in RPMI medium supplemented with 10% foetal calf serum, penicillin (100 I.U./mL) and streptomycin (100 μg/mL), sodium pyruvate (1 mM) and L-glutamine (2 mM). For chemosensitivity studies, cells were incubated in 96-well plates at a concentration of 7.5 × 10^3 cells per well and the plates were incubated for 24 h at 37 °C and a 5% CO2 humidified atmosphere prior to drug exposure.
Complexes were dissolved in DMSO to provide stock solutions, which were further diluted with media to provide a range of final concentrations. Drug-media solutions were added to cells (the final concentration of DMSO was less than 1% (v/v) in all cases) and incubated for 24 h at 37 °C and 5% CO2 humidified atmosphere. The drug-media was removed from the wells and the cells were washed with PBS (100 μL, twice), and 100 μL of complete fresh media were added to each well. The plates were further incubated for 48 h at 37 °C in a 5% CO2 humidified atmosphere to allow for a period of recovery. 3-(4,5-dimethylthiazol-2-yl)-2,5-diphenyltetrazolium bromide (MTT) (20 μL, 2.5 mg/mL) was added to each well and incubated for 2 h at 37 °C and 5% CO2 humidified atmosphere. All solutions were then removed and 100 μL of DMSO was added to each well in order to dissolve the purple formazan crystals. A Thermo Scientific Multiskan EX microplate photometer was used to measure the absorbance in each well at 570 nm. Cell survival was determined as the absorbance of treated cells divided by the absorbance of controls and expressed as a percentage. The IC50 values were determined from plots of % survival against drug concentration. Each experiment was repeated in triplicates of triplicates and a mean value was obtained and stated as IC50 (μM) ± SD. Cisplatin was also used as a positive control.

The nature of a further data set: Solubility as observed. The data set is classed as physicochemical. The conditions noted are these: MeOD/D2O 1:1 v/v, 1.1 mM. On the procedure:
Owing to the limited aqueous solubility of the complexes, all the reactivity experiments were performed using a mixture MeOD/D2O (1:1 v/v) as a solvent. The stability of complexes 1–4 in MeOD/D2O was studied via ^1H-NMR spectroscopy over a period of 24 h. […] The stability of complexes 1–4 in dimethylsulfoxide (DMSO;1.1 mM) was also studied by ^1H-NMR spectroscopy over a period of 24 h (Figure S1). […] The ligand ind-py is also stable in MeOD/D2O over 24 h (Figure S1E).

The mark [3] stands for this setting: 24 h exposure + 48 h recovery, MTT, mean ± SD, read-out: IC50 A2780.
Where [4] appears, read: A2780 and A2780cisR, read-out: IC50 values (in the range of).

Consider `Cc1c(C)c(C)[c-](C)c1C.[Cl-].[Rh+3].c1ccc(-c2cc3ccccc3[n-]2)nc1` [complex 1, [Cp*Rh(ind-py)Cl]], for which the “pH above which changes in the UV-Vis spectra could be observed” value in data set [1] (pKa itself could not be calculated) is on record as “higher than 10”. Moreover, the “TOF (printed in Figure 3C)” value in data set [2] (28 mol. equiv. formate, 9 mol. equiv. NAD+, MeOD/D2O 1/1 v/v, pH 7.4, 310 K, in 1/h) came to 14.63 ± 0.78. For the same molecule, the “TOF (turnover frequency) for the reduction of NAD+” value (“TOF … for the reduction of NAD+” for short) in data set [2] stood at 14.6 ± 0.7 h⁻¹. Further, the IC50 in the data set on A2780 cells (setting [3]) was 13 ± 1.7 µM; in the data set on A2780 cells (setting [4]), ~20 µM. The “IC50 relative to cisplatin (fold higher / less active)” value in the data set on A2780 cells (A2780 and A2780cisR) was determined as 3 ×. The “Selectivity towards cancerous cells (A2780) versus normal cells (PNT2)” value with A2780 cells was determined as 3 ×.

For the molecule `Cc1c(C)c(C)[c-](C)c1C.[Cl-].[Ir+3].c1ccc(-c2cc3ccccc3[n-]2)nc1` [complex 2, [Cp*Ir(ind-py)Cl]], the pKa in data set [1] is 9.59 ± 0.09 (λ = 300 nm). For the same molecule, the “Time to reduce nine molar equivalents of NAD+” value in data set [2] (MeOD/D2O 1:1 v/v, 310 K, pH* 7.4 ± 0.2, formate 28 mol. equiv.) is listed as ≤ 10 min. The IC50 in the data set on A2780 cells (setting [3]) is 22 ± 2.5 µM; in the data set with A2780 cells (setting [4]), ~20 µM. Moreover, the “IC50 relative to cisplatin (fold higher / less active)” value with A2780 cells (A2780 and A2780cisR) turned out to be 3 ×. Further, in “Solubility as observed”, the “Solubility in MeOD/D2O (in words)” value is given as “poor solubility”.

In the case of `Cc1ccc(C(C)C)cc1.[Cl-].[Ru+2].c1ccc(-c2cc3ccccc3[n-]2)nc1` [complex 3, [(p-cym)Ru(ind-py)Cl]], the pKa in data set [1] is on record as 10.63 ± 0.03 (λ = 255 nm). Moreover, in data set [2], the “TOF … for the reduction of NAD+” value worked out at 7.95 ± 0.81 h⁻¹. Besides, in the data set with A2780 cells (setting [3]), the half-maximal inhibitory concentration (IC50) turned out to be 47.3 ± 4.7 µM.

Consider `Cc1ccc(C(C)C)cc1.[Cl-].[Os+2].c1ccc(-c2cc3ccccc3[n-]2)nc1` [complex 4, [(p-cym)Os(ind-py)Cl]], for which the pKa in data set [1] is 10.15 ± 0.04 (λ = 355 nm). For the same molecule, in data set [2], the “TOF … for the reduction of NAD+” value amounted to 5.74 ± 0.35 h⁻¹. For the same molecule, the IC50 is 18.8 ± 0.3 µM with A2780 cells (setting [3]) and ~20 µM in the data set with A2780 cells (setting [4]). Also, in the data set with A2780 cells (A2780 and A2780cisR), the “IC50 relative to cisplatin (fold higher / less active)” value stood at 3 ×. Also, in the data set on A2780 cells, the “Selectivity towards cancerous cells (A2780) versus normal cells (PNT2)” value is given as 2 ×.
